Assay results: patent US9593149B2, “Amylin and calcitonin receptor agonist” (Novo Nordisk A/S, priority 2014, dated 2017)
≈ marks a conversion by molar mass, not a printed value. Numbered stars: 1 amine (or outer) side, 2 acyl side, 3 side chain; on linkers, the order of the positions; unused ones are H or OH. Square brackets hold non-standard residues; d marks the D form. Peptide text beside a SMILES is read from it. * marks the point of attachment. C20 diacid = O=C(O)CCCCCCCCCCCCCCCCCCC(=O)*; C16 diacid = O=C(O)CCCCCCCCCCCCCCC(=O)*; γGlu = O=C(O)[C@H](CCC(=O)[*:2])N[*:1]; C14 diacid = O=C(O)CCCCCCCCCCCCC(=O)*

How the values were obtained:
[1] = Assay (IV) determination of solubility; type: physicochemical
Method: Assay (IV)—Determination of Solubility
The mimylin peptide was dissolved in water at ˜500 nmol/ml and mixed 1:1 with a series of buffers (100 mM glycylglycine pH 3.0, 100 mM glycylglycine pH 4.0, 100 mM glycylglycine pH 5.0, 100 mM bistrispropane pH 6.0, 100 mM bistrispropane pH 6.5, 100 mM bistrispropane pH 7.0, 100 mM bistrispropane pH 7.5, 100 mM bistrispropane pH 8.0).

rat calcitonin receptor = target: T1, rat calcitonin receptor (Rattus norvegicus, UniProt P32214); test: Assay (VIII) binding to the rat calcitonin receptor; conditions: membranes; read-out: rCT-R binding IC50
T1 construct: expressed in transfected cells; host or cells: BHK tk'ts 13 (transient, FuGENE 6)
T1 sequence (P32214 25-479 isoform P32214-2 limits assumed): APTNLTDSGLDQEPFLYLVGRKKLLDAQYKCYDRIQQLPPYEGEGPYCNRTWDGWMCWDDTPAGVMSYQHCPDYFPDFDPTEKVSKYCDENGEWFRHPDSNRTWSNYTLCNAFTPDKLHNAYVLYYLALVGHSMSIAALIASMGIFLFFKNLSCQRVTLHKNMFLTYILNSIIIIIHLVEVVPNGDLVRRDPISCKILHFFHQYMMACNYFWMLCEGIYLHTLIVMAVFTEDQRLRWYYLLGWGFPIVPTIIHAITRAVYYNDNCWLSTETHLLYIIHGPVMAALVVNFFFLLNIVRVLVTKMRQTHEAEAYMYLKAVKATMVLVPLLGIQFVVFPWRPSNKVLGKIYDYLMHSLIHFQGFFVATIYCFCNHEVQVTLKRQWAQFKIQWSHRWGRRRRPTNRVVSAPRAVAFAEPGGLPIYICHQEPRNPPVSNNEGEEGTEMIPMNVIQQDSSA
Procedure, shortened: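 Competition binding on membranes from BHK tk'ts 13 cells transiently transfected with rat calcitonin receptor, otherwise run as the human receptor assay. Plates washed in cold HBSS, lysed in 0.1 M NaOH/1% SDS and scintillation-counted. IC50 from one-site competition fit as affinity measure.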

CC(C)C[C@H](NC(=O)[C@H](C)NC(=O)[C@H](C)NC(=O)[C@@H](NC(=O)[C@H](CO)NC(=O)[C@H](CC(C)C)NC(=O)[C@H](CCC(=O)O)NC(=O)[C@H](CO)NC(=O)[C@H](C)NC(=O)CC[C@H](NC(=O)CCCCCCCCCCCCC(=O)O)C(=O)O)[C@@H](C)O)C(=O)NCC(=O)N[C@@H](CCCNC(=N)N)C(=O)N[C@@H](CC(C)C)C(=O)N[C@@H](CO)C(=O)N[C@@H](C)C(=O)N[C@@H](CCC(=O)O)C(=O)N[C@@H](CC(C)C)C(=O)N[C@@H](Cc1cnc[nH]1)C(=O)N[C@@H](CCC(=O)O)C(=O)N[C@@H](CC(C)C)C(=O)N[C@@H](C)C(=O)N[C@H](C(=O)N[C@@H](CC(C)C)C(=O)N1CCC[C@H]1C(=O)N[C@@H](CCCNC(=N)N)C(=O)N[C@H](C(=O)N[C@@H](CCC(=O)O)C(=O)N[C@H](C(=O)NCC(=O)N[C@@H](CO)C(=O)NCC(=O)N[C@@H](CO)C(=O)N1CCC[C@H]1C(N)=O)[C@@H](C)O)[C@@H](C)O)[C@@H](C)O [compound 50, [N-terminal(C14 diacid-gGlu), des1, 30S, 31G]mimylin] ({C14 diacid-γGlu}-ASELSTAALGRLSAELHELATLPRTETGSGSP-NH2)
Solubility ([1]; pH 3.0): ≧200 μM
Solubility ([1]; pH 4.0): ≧200 μM
Solubility ([1]; pH 5.0): ≧200 μM
Solubility ([1]; pH 6.0): ≧200 μM
Solubility ([1]; pH 6.5): ≧200 μM
Solubility ([1]; pH 7.0): ≧200 μM
Solubility ([1]; pH 7.5): ≧200 μM
Solubility ([1]; pH 8.0): ≧200 μM
IC50 (rat calcitonin receptor): 0.017 nM

CC(C)C[C@H](NC(=O)[C@H](C)NC(=O)[C@H](C)NC(=O)[C@@H](NC(=O)[C@H](CO)NC(=O)[C@H](CC(C)C)NC(=O)[C@H](CCC(=O)O)NC(=O)[C@H](CO)NC(=O)[C@H](C)NC(=O)CC[C@H](NC(=O)CCCCCCCCCCCCCCC(=O)O)C(=O)O)[C@@H](C)O)C(=O)NCC(=O)N[C@@H](CCCNC(=N)N)C(=O)N[C@@H](CC(C)C)C(=O)N[C@@H](CO)C(=O)N[C@@H](C)C(=O)N[C@@H](CCC(=O)O)C(=O)N[C@@H](CC(C)C)C(=O)N[C@@H](Cc1cnc[nH]1)C(=O)N[C@@H](CCC(=O)O)C(=O)N[C@@H](CC(C)C)C(=O)N[C@@H](C)C(=O)N[C@H](C(=O)N[C@@H](CC(C)C)C(=O)N1CCC[C@H]1C(=O)N[C@@H](CCCNC(=N)N)C(=O)N[C@H](C(=O)N[C@@H](CCC(=O)O)C(=O)N[C@H](C(=O)NCC(=O)N[C@@H](CO)C(=O)NCC(=O)N[C@@H](CO)C(=O)N1CCC[C@H]1C(N)=O)[C@@H](C)O)[C@@H](C)O)[C@@H](C)O [compound 47, [N-terminal(C16 diacid-gGlu), des1, 30S, 31G]mimylin] ({C16 diacid-γGlu}-ASELSTAALGRLSAELHELATLPRTETGSGSP-NH2)
Solubility ([1]; pH 3.0): ≧200 μM
Solubility ([1]; pH 4.0): ≧200 μM
Solubility ([1]; pH 5.0): ≧200 μM
Solubility ([1]; pH 6.0): ≧200 μM
Solubility ([1]; pH 6.5): ≧200 μM
Solubility ([1]; pH 7.0): ≧200 μM
Solubility ([1]; pH 7.5): ≧200 μM
Solubility ([1]; pH 8.0): ≧200 μM
IC50 (rat calcitonin receptor): 0.013 nM

CC(C)C[C@H](NC(=O)[C@H](C)NC(=O)[C@H](C)NC(=O)[C@@H](NC(=O)[C@H](CO)NC(=O)[C@H](CC(C)C)NC(=O)[C@H](CCC(=O)O)NC(=O)[C@H](CO)NC(=O)[C@H](C)NC(=O)CC[C@H](NC(=O)CCCCCCCCCCCCCCCCCCC(=O)O)C(=O)O)[C@@H](C)O)C(=O)NCC(=O)N[C@@H](Cc1cnc[nH]1)C(=O)N[C@@H](CC(C)C)C(=O)N[C@@H](CO)C(=O)N[C@@H](C)C(=O)N[C@@H](CCC(=O)O)C(=O)N[C@@H](CC(C)C)C(=O)N[C@@H](Cc1cnc[nH]1)C(=O)N[C@@H](CCC(=O)O)C(=O)N[C@@H](CC(C)C)C(=O)N[C@@H](C)C(=O)N[C@H](C(=O)N[C@@H](CC(C)C)C(=O)N1CCC[C@H]1C(=O)N[C@@H](CCCNC(=N)N)C(=O)N[C@H](C(=O)N[C@@H](CCC(=O)O)C(=O)N[C@H](C(=O)NCC(=O)N[C@@H](CO)C(=O)NCC(=O)N[C@@H](CO)C(=O)N1CCC[C@H]1C(N)=O)[C@@H](C)O)[C@@H](C)O)[C@@H](C)O [compound 72, [N-terminal(C20 diacid-gGlu), des1, 12H, 30S, 31G]mimylin] ({C20 diacid-γGlu}-ASELSTAALGHLSAELHELATLPRTETGSGSP-NH2)
Solubility ([1]; pH 3.0): ≧200 μM
Solubility ([1]; pH 4.0): ≧200 μM
Solubility ([1]; pH 5.0): ≧200 μM
Solubility ([1]; pH 6.0): ≧200 μM
Solubility ([1]; pH 6.5): ≧200 μM
Solubility ([1]; pH 7.0): ≧200 μM
Solubility ([1]; pH 7.5): ≧200 μM
Solubility ([1]; pH 8.0): ≧200 μM
IC50 (rat calcitonin receptor): 0.085 nM

CC(C)C[C@H](NC(=O)[C@H](C)NC(=O)[C@H](C)NC(=O)[C@@H](NC(=O)[C@H](CO)NC(=O)[C@H](CC(C)C)NC(=O)[C@H](CCC(=O)O)NC(=O)[C@H](CO)NC(=O)[C@H](C)NC(=O)CC[C@H](NC(=O)CCCCCCCCCCCCCCCCCCC(=O)O)C(=O)O)[C@@H](C)O)C(=O)NCC(=O)N[C@@H](CCCNC(=N)N)C(=O)N[C@@H](CC(C)C)C(=O)N[C@@H](CO)C(=O)N[C@H](CCC(=O)O)C(=O)N[C@@H](CCC(=O)O)C(=O)N[C@@H](CC(C)C)C(=O)N[C@@H](Cc1cnc[nH]1)C(=O)N[C@@H](CCC(=O)O)C(=O)N[C@@H](CC(C)C)C(=O)N[C@@H](C)C(=O)N[C@H](C(=O)N[C@@H](CC(C)C)C(=O)N1CCC[C@H]1C(=O)N[C@@H](CCCNC(=N)N)C(=O)N[C@H](C(=O)N[C@@H](CCC(=O)O)C(=O)N[C@H](C(=O)NCC(=O)N[C@@H](CO)C(=O)NCC(=O)N[C@@H](CO)C(=O)N1CCC[C@H]1C(N)=O)[C@@H](C)O)[C@@H](C)O)[C@@H](C)O [compound 67, [N-terminal(C20 diacid-gGlu), des1, 15e, 30S, 31G]mimylin] ({C20 diacid-γGlu}-ASELSTAALGRLS[dE]ELHELATLPRTETGSGSP-NH2)
Solubility ([1]; pH 3.0): ≧200 μM
Solubility ([1]; pH 4.0): ≧200 μM
Solubility ([1]; pH 5.0): ≧200 μM
Solubility ([1]; pH 6.0): ≧200 μM
Solubility ([1]; pH 6.5): ≧200 μM
Solubility ([1]; pH 7.0): ≧200 μM
Solubility ([1]; pH 7.5): ≧200 μM
Solubility ([1]; pH 8.0): ≧200 μM
IC50 (rat calcitonin receptor): 0.017 nM

CC(C)C[C@H](NC(=O)CNC(=O)[C@H](CO)NC(=O)[C@H](C)NC(=O)COCCOCCNC(=O)COCCOCCNC(=O)CC[C@H](NC(=O)CCCCCCCCCCCCCCCCCCC(=O)O)C(=O)O)C(=O)N[C@@H](CO)C(=O)N[C@H](C(=O)N[C@@H](C)C(=O)N[C@H](C(=O)N[C@@H](CC(C)C)C(=O)NCC(=O)N[C@@H](CCCNC(=N)N)C(=O)N[C@@H](CC(C)C)C(=O)N[C@@H](CO)C(=O)N[C@@H](CCC(N)=O)C(=O)N[C@@H](CCC(=O)O)C(=O)N[C@@H](CC(C)C)C(=O)N[C@@H](Cc1cnc[nH]1)C(=O)N[C@@H](CCC(=O)O)C(=O)N[C@@H](CC(C)C)C(=O)N[C@@H](CCC(N)=O)C(=O)N[C@H](C(=O)N[C@@H](Cc1ccc(O)cc1)C(=O)N1CCC[C@H]1C(=O)N[C@@H](CCCNC(=N)N)C(=O)N[C@H](C(=O)N[C@@H](CCC(=O)O)C(=O)N[C@H](C(=O)NCC(=O)N[C@@H](CO)C(=O)NCC(=O)N[C@H](C(=O)N[C@@H](Cc1ccc(O)cc1)C(N)=O)[C@@H](C)O)[C@@H](C)O)[C@@H](C)O)[C@@H](C)O)C(C)C)[C@@H](C)O [compound 120, [N-terminal(C20 diacid-gGlu-2xOEG), des1, 4G, 9V, 15Q, 21Q, 23Y, 30S, 31G, 32T, 33Y]mimylin]
Solubility ([1]; pH 3.0): ≧200 μM
Solubility ([1]; pH 4.0): ≧200 μM
solubility at 18 h ([1]; pH 5.0): 96 µM (≈ 400 µg/mL)
Solubility ([1]; pH 6.0): ≧200 μM
Solubility ([1]; pH 6.5): ≧200 μM
Solubility ([1]; pH 7.0): ≧200 μM
Solubility ([1]; pH 7.5): ≧200 μM
Solubility ([1]; pH 8.0): ≧200 μM
IC50 (rat calcitonin receptor): 0.027 nM

CC(C)C[C@H](NC(=O)[C@H](C)NC(=O)[C@H](C)NC(=O)[C@@H](NC(=O)[C@H](CO)NC(=O)[C@H](CC(C)C)NC(=O)[C@H](CCC(=O)O)NC(=O)[C@H](CO)NC(=O)[C@H](C)NC(=O)CC[C@H](NC(=O)CCCCCCCCCCCCCCCCCCC(=O)O)C(=O)O)[C@@H](C)O)C(=O)NCC(=O)N[C@@H](CCCNC(=N)N)C(=O)N[C@@H](CC(C)C)C(=O)N[C@@H](CO)C(=O)N[C@@H](C)C(=O)N[C@@H](CCC(=O)O)C(=O)N[C@@H](CC(C)C)C(=O)N[C@@H](Cc1cnc[nH]1)C(=O)N[C@@H](CCC(=O)O)C(=O)N[C@@H](CC(C)C)C(=O)N[C@@H](C)C(=O)N[C@H](C(=O)N[C@@H](Cc1ccc(O)cc1)C(=O)N1CCC[C@H]1C(=O)N[C@@H](CCCNC(=N)N)C(=O)N[C@H](C(=O)N[C@@H](CCC(=O)O)C(=O)N[C@H](C(=O)NCC(=O)N[C@@H](CO)C(=O)NCC(=O)N[C@@H](C)C(=O)N1CCC[C@H]1C(N)=O)[C@@H](C)O)[C@@H](C)O)[C@@H](C)O [compound 81, [N-terminal(C20 diacid-gGlu), des1, 23Y, 30S, 31G, 32A]mimylin] ({C20 diacid-γGlu}-ASELSTAALGRLSAELHELATYPRTETGSGAP-NH2)
Solubility ([1]; pH 3.0): ≧200 μM
Solubility ([1]; pH 4.0): ≧200 μM
Solubility ([1]; pH 5.0): ≧200 μM
Solubility ([1]; pH 6.0): ≧200 μM
Solubility ([1]; pH 6.5): ≧200 μM
Solubility ([1]; pH 7.0): ≧200 μM
Solubility ([1]; pH 7.5): ≧200 μM
Solubility ([1]; pH 8.0): ≧200 μM
IC50 (rat calcitonin receptor): 0.039 nM
